In patent US20070276017A1, “Thiadiazoline Derivative” (priority 2003, published 2007):

Legend:
human Eg5 motor domain = target: T1, human Eg5 motor domain (Homo sapiens, UniProt P52732); assay: Eg5 enzyme inhibition test (2): ATPase activity of recombinant human Eg5 motor domain; format: biochemical; details: tubulin/paclitaxel, 30° C. for 30 minutes, concentration-dependent inhibition
T1 construct: A plasmid expressing the motor domain of human Eg5 was constructed; made in house; host or cells: Escherichia coli BL21 (DE3)
T1 sequence (P52732 18-359 limits assumed): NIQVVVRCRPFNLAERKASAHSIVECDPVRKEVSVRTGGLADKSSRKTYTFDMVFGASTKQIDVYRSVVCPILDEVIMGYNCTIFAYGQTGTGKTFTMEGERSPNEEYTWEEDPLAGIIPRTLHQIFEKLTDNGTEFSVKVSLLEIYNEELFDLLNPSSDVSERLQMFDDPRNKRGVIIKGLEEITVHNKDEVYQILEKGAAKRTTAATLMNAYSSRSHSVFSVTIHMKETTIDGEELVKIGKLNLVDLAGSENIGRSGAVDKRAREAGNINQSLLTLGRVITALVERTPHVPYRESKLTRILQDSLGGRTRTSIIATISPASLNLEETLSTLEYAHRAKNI
Experimental: A recombinant human Eg5 motor domain protein was prepared by referring to the literature [Biochemistry, Vol. 35, p. 2365 (1996)]. A plasmid expressing the motor domain of human Eg5 was constructed, and transformed into Escherichia coli BL21 (DE3). The transformant was cultured at 25° C., and when the OD600 reached 0.74, isopropyl-β-D-thiogalactoside was added at a final concentration of 0.5 mmol/L. The transformant was further cultured for 4 hours, and then the culture medium was centrifuged to collect the cells. The cells were suspended in a buffer and ultrasonicated, and then the sonicated solution was centrifuged to recover the supernatant. The supernatant was purified by cation exchange column chromatography to obtain a partially purified sample. Furthermore, the partially purified sample was purified by gel filtration column chromatography to obtain a finally purified sample.
Measurement of the ATPase activity of Eg5 was carried out by referring to the literatures [EMBO Journal, Vol. 13, p. 751 (1994); Proc. Natl. Acad. Sci. USA, Vol. 89, p. 4884 (1992)]. The following two kinds of solutions were prepared: Solution A consisting of 25 mmol/L piperazine N,N′-bis(ethanesulfonate) (PIPES)/KOH (pH 6.8), 1 mmol/L ethylene glycol-bis(2-aminoethyl ether)tetraacetic acid (EGTA), 2 mmol/L MgCl2, 1 mmol/L dithiothreitol (DTT), 5 μmol/L paclitaxel, 167 μg/mL bovine serum albumin (BSA), 41.7 μg/mL tubulin (Cytoskeleton, Catalog No. TL238), 333 μmol/L MESG substrate (2-amino-6-mercapto-7-methylpurine riboside) (Molecular Probes, Catalog Number E-6646), 1.67 U/mL purine nucleoside phosphorylase (Molecular Probe, Catalog No. E-6646) and 1.33 μg/mL of the human Eg5 motor domain purified sample, and Solution B consisting of 25 mmol/L piperazine N,N′-bis(ethanesulfonate) (PIPES)/KOH (pH 6.8), 1 mmol/L ethylene glycol-bis(2-aminoethyl ether)tetraacetic acid (EGTA), 2 mmol/L MgCl2, 1 mmol/L dithiothreitol (DTT), 5 μmol/L paclitaxel and 2.5 mmol/L ATP. Solution A was dispensed into each well of a 96-well plate as 45 μL portions. Solution B was used to serially dilute a test compound. The diluted test compound solutions in a volume of 30 μL were mixed with Solution A added beforehand in each well of the 96-well plate to start the enzymatic reaction. The enzymatic reaction was performed at 30° C. for 30 minutes. Absorbance at 360 nm, which serves as an index of the ATPase activity, was measured using a plate reader (Molecular Device, SpectraMax 340PC^384). The absorbance observed in the presence of Eg5 and absence of the test compound was defined 100%, and the absorbance observed in the absence of both Eg5 and the test compound was defined 0%. The relative activity was calculated to calculate IC50 value.

[1] = test system: HCT 116 human colon carcinoma cells; assay: Antiproliferative activity against HCT 116 human colon carcinoma cells (XTT, 72 hours); format: cell-based; details: read-out: GI50, concentration of compound which induces 50% inhibition of cell proliferation, HCT 116 cells, 72 hours incubation
Experimental: HCT 116 cells (ATCC No.: CCL-247) were placed on a 96-well microtiter plate (Nunc, 167008) at a density of 1×10^3 cells/well. The plate was incubated in a 5% CO2 incubator at 37° C. for 24 hours, and then to the plate was added test compounds diluted stepwise to […] in total, and the plate was further incubated in a 5% CO2 incubator at 37° C. for 72 hours. To the culture medium, the XTT (sodium 3′-[1-(phenylaminocarbonyl)-3,4-tetrazolium]-bis(4-methoxy-6-nitro)benzenesulfonic acid hydrate) labeling mixture (Roche Diagnostics, 1465015) was dispensed in […] portions, then the plate was incubated in a 5% CO2 incubator at 37° C. for 1 hour, and the absorbance was measured at 490 nm and 655 nm with a microplate spectrophotometer (Bio-Rad, Model 550).
GI50 calculation method: The value (difference in absorbance) was calculated by subtracting the absorbance at 655 nm from the absorbance at 490 nm of each well.

| Structure (SMILES) | IC50 (human Eg5 motor domain) [µM] | GI50 [1] [µM] |
| --- | --- | --- |
| CCOCCNCCC1(c2ccccc2)SC(NC(=O)C(C)(C)C)=NN1C(=O)C(C)(C)C (stereo not drawn) [Compound 3] | ≤ 5 |  |
| CC(C)(C)C(=O)NC1=NN(C(=O)C(C)(C)C)C(CCNCCCN2CCCC2=O)(c2ccccc2)S1 (stereo not drawn) [Compound 9] | ≤ 5 | 0.065 |
| CNCCCC1(c2ccccc2)SC(NC(=O)C(C)(C)C)=NN1C(=O)C(C)(C)C (stereo not drawn) [Compound 23] | ≤ 5 |  |
| CC(C)(C)C(=O)NC1=NN(C(=O)C(C)(C)C)C(CCCNCCCO)(c2ccccc2)S1 (stereo not drawn) [Compound 29] | ≤ 5 |  |
| CC(C)(C)C(=O)NC1=NN(C(=O)C(C)(C)C)C(CCNC(=O)C2CCCN2)(c2ccccc2)S1 (stereo not drawn) [Compound 59] | ≤ 5 | < 10 |
| CC(C)(C)C(=O)NC1=NN(C(=O)C(C)(C)C)C(CCCNC(=O)CN)(c2ccccc2)S1 (stereo not drawn) [Compound 73] | ≤ 5 |  |
| CC(C)(C)C(=O)NC1=NN(C(=O)C(C)(C)C)C(CCCNC(CO)CO)(c2ccccc2)S1 (stereo not drawn) [Compound 76] | ≤ 5 | < 10 |
| CC(C)(C)C(=O)N1N=C(N2CCCCC2=O)SC1(CCCN)c1ccccc1 (stereo not drawn) [Compound 83] | ≤ 5 |  |
| CN(C)CCS(=O)(=O)NCCCC1(c2ccccc2)SC(N2CCCCC2=O)=NN1C(=O)C(C)(C)C (stereo not drawn) [Compound 85] | ≤ 5 | < 10 |
| CC(=O)N1N=C(NC(=O)C(C)(C)C)SC1(CCCN)c1ccccc1 (stereo not drawn) [Compound 88] | ≤ 5 |  |

Now from value to compound:

| IC50 (human Eg5 motor domain) [µM] | GI50 [1] [µM] | Structure (SMILES) |
| --- | --- | --- |
| ≤ 5 |  | CC(=O)N1N=C(N2CCCC2=O)SC1(CCCN)c1ccccc1 (stereo not drawn) [Compound 90] |
| ≤ 5 | < 10 | COC(=O)N1CCN(CCCC2(c3ccccc3)SC(NC(=O)C(C)(C)C)=NN2C(=O)C(C)(C)C)CC1 (stereo not drawn) [Compound 122] |
| ≤ 5 | < 10 | CC(=O)N1N=C(N2CCCCC2=O)SC1(CCNC(=O)CCCN(C)C)c1ccccc1 (stereo not drawn) [Compound 144] |
| ≤ 5 | < 10 | CC(C)(C)C(=O)NC1=NN(C(=O)C(C)(C)C)C(COC(=O)NCCN2CCCC2)(c2ccccc2)S1 (stereo not drawn) [Compound 181] |
